PubChem BioAssay (NCI)
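Five compound concentrations were applied to cells in 96-well plates for 48 hours; endpoints were derived by simple linear interpolation of the resulting dose-response curve. TGI: total growth inhibition.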

How the values were obtained:
Experiment in all cases: inhibition of tumour cell growth, NCI panel, 48 h
LOX IMVI melanoma = test system: LOX IMVI melanoma
SNB-78 CNS = test system: SNB-78 CNS
HCC-2998 colon = test system: HCC-2998 colon
MOLT-4 leukemia = test system: MOLT-4 leukemia
HCT-116 colon = test system: HCT-116 colon
OVCAR-4 ovarian = test system: OVCAR-4 ovarian
M14 melanoma = test system: M14 melanoma
RXF-631 renal = test system: RXF-631 renal
HCT-15 colon = test system: HCT-15 colon
HOP-18 NSCLC = test system: HOP-18 NSCLC
UACC-257 melanoma = test system: UACC-257 melanoma
M19-MEL melanoma = test system: M19-MEL melanoma
DMS 114 small cell lung = test system: DMS 114 small cell lung
HOP-62 NSCLC = test system: HOP-62 NSCLC
NCI-H460 lung = test system: NCI-H460 lung
KM12 colon = test system: KM12 colon
786-0 renal = test system: 786-0 renal
HOP-92 NSCLC = test system: HOP-92 NSCLC
UACC-62 melanoma = test system: UACC-62 melanoma
CAKI-1 renal = test system: CAKI-1 renal
HL-60(TB) leukemia = test system: HL-60(TB) leukemia
U251 CNS = test system: U251 CNS
A498 renal = test system: A498 renal
DLD-1 colon = test system: DLD-1 colon
OVCAR-5 ovarian = test system: OVCAR-5 ovarian
SNB-19 CNS = test system: SNB-19 CNS
A549 NSCLC = test system: A549 NSCLC
UO-31 renal = test system: UO-31 renal
MALME-3M melanoma = test system: MALME-3M melanoma
SW-620 colon = test system: SW-620 colon
OVCAR-8 ovarian = test system: OVCAR-8 ovarian
TK-10 renal = test system: TK-10 renal
SNB-75 CNS = test system: SNB-75 CNS
SN12C renal = test system: SN12C renal
RPMI-8226 leukemia = test system: RPMI-8226 leukemia
COLO 205 colon = test system: COLO 205 colon
SF-268 CNS = test system: SF-268 CNS
SF-539 CNS = test system: SF-539 CNS
IGROV1 ovarian = test system: IGROV1 ovarian
RXF 393 renal = test system: RXF 393 renal
NCI-H226 lung = test system: NCI-H226 lung
NCI-H23 lung = test system: NCI-H23 lung
SF-295 CNS = test system: SF-295 CNS
SK-OV-3 ovarian = test system: SK-OV-3 ovarian
SK-MEL-28 melanoma = test system: SK-MEL-28 melanoma
OVCAR-3 ovarian = test system: OVCAR-3 ovarian
SK-MEL-5 melanoma = test system: SK-MEL-5 melanoma
DMS 273 small cell lung = test system: DMS 273 small cell lung
ACHN renal = test system: ACHN renal
SK-MEL-2 melanoma = test system: SK-MEL-2 melanoma
K-562 leukemia = test system: K-562 leukemia
EKVX NSCLC = test system: EKVX NSCLC
HT29 colon = test system: HT29 colon
CCRF-CEM leukemia = test system: CCRF-CEM leukemia
LXFL 529 NSCLC = test system: LXFL 529 NSCLC
SR leukemia = test system: SR leukemia
NCI-H522 lung = test system: NCI-H522 lung
KM20L2 colon = test system: KM20L2 colon
XF 498 CNS = test system: XF 498 CNS

## CC(C)(C)c1ccc(OCCOCCOc2ccc(C(C)(C)C)cc2S(N)(=O)=O)c(S(N)(=O)=O)c1
LOX IMVI melanoma
  TGI: > 100 µM
SNB-78 CNS
  TGI: > 100 µM
HCC-2998 colon
  TGI: > 100 µM
MOLT-4 leukemia
  TGI: 28.7 µM
HCT-116 colon
  TGI: > 100 µM
OVCAR-4 ovarian
  TGI: > 100 µM
M14 melanoma
  TGI: > 100 µM
RXF-631 renal
  TGI: > 100 µM
HCT-15 colon
  TGI: > 100 µM
HOP-18 NSCLC
  TGI: > 100 µM
UACC-257 melanoma
  TGI: > 100 µM
M19-MEL melanoma
  TGI: > 100 µM
DMS 114 small cell lung
  TGI: > 100 µM
HOP-62 NSCLC
  TGI: > 100 µM
NCI-H460 lung
  TGI: > 100 µM
KM12 colon
  TGI: > 100 µM
786-0 renal
  TGI: > 100 µM
HOP-92 NSCLC
  TGI: > 100 µM
UACC-62 melanoma
  TGI: > 100 µM
CAKI-1 renal
  TGI: > 100 µM
HL-60(TB) leukemia
  TGI: > 100 µM
U251 CNS
  TGI: > 100 µM
A498 renal
  TGI: > 100 µM
DLD-1 colon
  TGI: > 100 µM
OVCAR-5 ovarian
  TGI: > 100 µM
SNB-19 CNS
  TGI: > 100 µM
A549 NSCLC
  TGI: > 100 µM
UO-31 renal
  TGI: > 100 µM
MALME-3M melanoma
  TGI: > 100 µM
SW-620 colon
  TGI: > 100 µM
OVCAR-8 ovarian
  TGI: > 100 µM
TK-10 renal
  TGI: > 100 µM
SNB-75 CNS
  TGI: > 100 µM
SN12C renal
  TGI: > 100 µM
RPMI-8226 leukemia
  TGI: > 100 µM
COLO 205 colon
  TGI: > 100 µM
SF-268 CNS
  TGI: > 100 µM
SF-539 CNS
  TGI: > 100 µM
IGROV1 ovarian
  TGI: > 100 µM
RXF 393 renal
  TGI: > 100 µM
NCI-H226 lung
  TGI: > 100 µM
NCI-H23 lung
  TGI: > 100 µM
SF-295 CNS
  TGI: > 100 µM
SK-OV-3 ovarian
  TGI: > 100 µM
SK-MEL-28 melanoma
  TGI: > 100 µM
OVCAR-3 ovarian
  TGI: > 100 µM
SK-MEL-5 melanoma
  TGI: > 100 µM
DMS 273 small cell lung
  TGI: > 100 µM
ACHN renal
  TGI: > 100 µM
SK-MEL-2 melanoma
  TGI: > 100 µM
K-562 leukemia
  TGI: > 100 µM
EKVX NSCLC
  TGI: > 100 µM
HT29 colon
  TGI: > 100 µM
CCRF-CEM leukemia
  TGI: > 100 µM

## COc1ccc(C(C)Nc2cc(OC)c(OC)c(OC)c2)cc1 (stereo unspecified)
LOX IMVI melanoma
  TGI: > 92.6 µM
LXFL 529 NSCLC
  TGI: > 100 µM
SR leukemia
  TGI: > 100 µM
SNB-78 CNS
  TGI: 17.6 µM
HCC-2998 colon
  TGI: > 72.2 µM
MOLT-4 leukemia
  TGI: > 100 µM
HCT-116 colon
  TGI: > 46.2 µM
OVCAR-4 ovarian
  TGI: 63.8 µM
M14 melanoma
  TGI: > 100 µM
HCT-15 colon
  TGI: > 100 µM
HOP-18 NSCLC
  TGI: > 100 µM
UACC-257 melanoma
  TGI: > 100 µM
M19-MEL melanoma
  TGI: > 100 µM
HOP-62 NSCLC
  TGI: > 83.2 µM
NCI-H460 lung
  TGI: > 25.5 µM
KM12 colon
  TGI: > 100 µM
786-0 renal
  TGI: > 100 µM
HOP-92 NSCLC
  TGI: > 100 µM
UACC-62 melanoma
  TGI: > 100 µM
CAKI-1 renal
  TGI: > 100 µM
HL-60(TB) leukemia
  TGI: 5.81 µM
U251 CNS
  TGI: 10 µM
NCI-H522 lung
  TGI: 17.6 µM
A498 renal
  TGI: > 100 µM
DLD-1 colon
  TGI: > 100 µM
OVCAR-5 ovarian
  TGI: > 100 µM
SNB-19 CNS
  TGI: > 100 µM
A549 NSCLC
  TGI: > 100 µM
UO-31 renal
  TGI: > 100 µM
MALME-3M melanoma
  TGI: > 29.7 µM
SW-620 colon
  TGI: > 100 µM
OVCAR-8 ovarian
  TGI: > 100 µM
TK-10 renal
  TGI: > 100 µM
SNB-75 CNS
  TGI: > 100 µM
SN12C renal
  TGI: > 100 µM
RPMI-8226 leukemia
  TGI: > 100 µM
COLO 205 colon
  TGI: 7.78 µM
SF-268 CNS
  TGI: 9.59 µM
SF-539 CNS
  TGI: 12.8 µM
KM20L2 colon
  TGI: 7.3 µM
IGROV1 ovarian
  TGI: > 100 µM
RXF 393 renal
  TGI: 20.9 µM
NCI-H226 lung
  TGI: > 100 µM
NCI-H23 lung
  TGI: > 39.6 µM
SF-295 CNS
  TGI: 7.53 µM
SK-OV-3 ovarian
  TGI: > 62.5 µM
SK-MEL-28 melanoma
  TGI: > 100 µM
OVCAR-3 ovarian
  TGI: 6.99 µM
SK-MEL-5 melanoma
  TGI: > 100 µM
DMS 273 small cell lung
  TGI: > 100 µM
ACHN renal
  TGI: > 100 µM
SK-MEL-2 melanoma
  TGI: 81.1 µM
XF 498 CNS
  TGI: > 26.4 µM
K-562 leukemia
  TGI: > 45 µM
EKVX NSCLC
  TGI: > 100 µM
HT29 colon
  TGI: > 100 µM
CCRF-CEM leukemia
  TGI: > 100 µM
